# Measured values: ChEMBL document CHEMBL1201862, “PubChem BioAssay data set” (2004)
#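 Results reflect a 48-hour exposure of cells in 96-well plates to compound at five concentrations. GI50: concentration for 50% inhibition of growth.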 Calls of active or inactive are those of the source. Cut-off read from the data, not from the text of the source: active = GI50 up to about 1.1 µM and inactive = higher.
# Key:
# Test in all cases: NCI-60 cell line screen, 48 h
# T47D = system: T47D
# HCT-116 = system: HCT-116
# Hs-578T = system: Hs-578T
# SF-539 = system: SF-539
# NCI-H23 = system: NCI-H23
# OVCAR-5 = system: OVCAR-5
# NCI/ADR-RES = system: NCI/ADR-RES
# PC-3 = system: PC-3
# NCI-H460 = system: NCI-H460
# CCRF-CEM = system: CCRF-CEM
# UACC-62 = system: UACC-62
# NCI-H522 = system: NCI-H522
# Malme-3M = system: Malme-3M
# U-251 = system: U-251
# OVCAR-4 = system: OVCAR-4
# OVCAR-3 = system: OVCAR-3
# EKVX = system: EKVX
# SF-295 = system: SF-295
# NCI-H226 = system: NCI-H226
# COLO 205 = system: COLO 205
# SW-620 = system: SW-620
# OVCAR-8 = system: OVCAR-8
# BT-549 = system: BT-549
# A549 = system: A549
# MDA-MB-435 = system: MDA-MB-435
# SK-MEL-5 = system: SK-MEL-5
# LOX IMVI = system: LOX IMVI
# HOP-92 = system: HOP-92
# RPMI-8226 = system: RPMI-8226
# SF-268 = system: SF-268
# MCF7 = system: MCF7
# SR = system: SR
# HL-60 = system: HL-60
# 786-0 = system: 786-0
# SNB-19 = system: SNB-19
# HCT-15 = system: HCT-15
# UACC-257 = system: UACC-257
# KM12 = system: KM12
# SN12C = system: SN12C
# UO-31 = system: UO-31
# A498 = system: A498
# CAKI-1 = system: CAKI-1
# MOLT-4 = system: MOLT-4
# DU-145 = system: DU-145
# SK-MEL-2 = system: SK-MEL-2
# K562 = system: K562
# ACHN = system: ACHN
# SK-MEL-28 = system: SK-MEL-28
# RXF 393 = system: RXF 393
# SNB-75 = system: SNB-75
# MDA-MB-231 = system: MDA-MB-231
# M14 = system: M14
# IGROV-1 = system: IGROV-1
# HCC 2998 = system: HCC 2998
# HT-29 = system: HT-29
# HOP-62 = system: HOP-62
# TK-10 = system: TK-10
# SK-OV-3 = system: SK-OV-3
compound,measurement,setting,value
CCNc1ccc2c(c1)Cc1ccccc1-2,GI50,T47D,> 100 µM (inactive)
same,GI50,HCT-116,> 100 µM (inactive)
same,GI50,Hs-578T,65.2 µM (inactive)
same,GI50,SF-539,43.8 µM (inactive)
same,GI50,NCI-H23,14.3 µM (inactive)
same,GI50,OVCAR-5,> 100 µM (inactive)
same,GI50,NCI/ADR-RES,> 100 µM (inactive)
same,GI50,PC-3,35.4 µM (inactive)
same,GI50,NCI-H460,18 µM (inactive)
same,GI50,CCRF-CEM,> 100 µM (inactive)
same,GI50,UACC-62,40.7 µM (inactive)
same,GI50,NCI-H522,32.7 µM (inactive)
same,GI50,Malme-3M,67.9 µM (inactive)
same,GI50,U-251,44.3 µM (inactive)
same,GI50,OVCAR-4,75.3 µM (inactive)
same,GI50,OVCAR-3,29 µM (inactive)
same,GI50,EKVX,32.4 µM (inactive)
same,GI50,SF-295,47.6 µM (inactive)
same,GI50,NCI-H226,54.7 µM (inactive)
same,GI50,COLO 205,64.9 µM (inactive)
same,GI50,SW-620,83.6 µM (inactive)
same,GI50,OVCAR-8,51.5 µM (inactive)
same,GI50,BT-549,34.5 µM (inactive)
same,GI50,A549,73.5 µM (inactive)
same,GI50,MDA-MB-435,49.5 µM (inactive)
same,GI50,SK-MEL-5,25.8 µM (inactive)
same,GI50,LOX IMVI,32.3 µM (inactive)
same,GI50,HOP-92,21.2 µM (inactive)
same,GI50,RPMI-8226,47.3 µM (inactive)
same,GI50,SF-268,46.2 µM (inactive)
same,GI50,MCF7,23.7 µM (inactive)
same,GI50,SR,14.5 µM (inactive)
same,GI50,HL-60,37.3 µM (inactive)
same,GI50,786-0,> 100 µM (inactive)
same,GI50,SNB-19,48.1 µM (inactive)
same,GI50,HCT-15,7.38 µM
same,GI50,UACC-257,49.7 µM (inactive)
same,GI50,KM12,26.1 µM (inactive)
same,GI50,SN12C,64 µM (inactive)
same,GI50,UO-31,52.4 µM (inactive)
same,GI50,A498,43.3 µM (inactive)
same,GI50,CAKI-1,27.2 µM (inactive)
same,GI50,MOLT-4,12.9 µM (inactive)
same,GI50,DU-145,59.8 µM (inactive)
same,GI50,SK-MEL-2,56.1 µM (inactive)
same,GI50,K562,27.6 µM (inactive)
same,GI50,ACHN,77.4 µM (inactive)
same,GI50,SK-MEL-28,> 100 µM (inactive)
same,GI50,RXF 393,> 100 µM (inactive)
same,GI50,SNB-75,> 100 µM (inactive)
same,GI50,MDA-MB-231,64.1 µM (inactive)
same,GI50,M14,66.5 µM (inactive)
same,GI50,IGROV-1,37 µM (inactive)
same,GI50,HCC 2998,9.71 µM (inactive)
same,GI50,HT-29,50.5 µM (inactive)
same,GI50,HOP-62,> 100 µM (inactive)
same,GI50,TK-10,33.1 µM (inactive)
C(/Cc1ccc2c(c1)OCO2)=N\N=C1NCCCCN1,GI50,T47D,54.5 µM (inactive)
same,GI50,HCT-116,64.7 µM (inactive)
same,GI50,Hs-578T,> 100 µM (inactive)
same,GI50,SF-539,> 100 µM (inactive)
same,GI50,NCI-H23,> 100 µM (inactive)
same,GI50,OVCAR-5,34.7 µM (inactive)
same,GI50,NCI/ADR-RES,> 100 µM (inactive)
same,GI50,PC-3,86.1 µM (inactive)
same,GI50,NCI-H460,45.8 µM (inactive)
same,GI50,CCRF-CEM,82.2 µM (inactive)
same,GI50,UACC-62,> 100 µM (inactive)
same,GI50,NCI-H522,> 100 µM (inactive)
same,GI50,Malme-3M,> 100 µM (inactive)
same,GI50,U-251,86.3 µM (inactive)
same,GI50,OVCAR-4,> 100 µM (inactive)
same,GI50,OVCAR-3,> 100 µM (inactive)
same,GI50,EKVX,50 µM (inactive)
same,GI50,SF-295,51.5 µM (inactive)
same,GI50,NCI-H226,49.2 µM (inactive)
same,GI50,COLO 205,> 100 µM (inactive)
same,GI50,SW-620,> 100 µM (inactive)
same,GI50,OVCAR-8,> 100 µM (inactive)
same,GI50,BT-549,> 100 µM (inactive)
same,GI50,A549,> 100 µM (inactive)
same,GI50,MDA-MB-435,> 100 µM (inactive)
same,GI50,SK-MEL-5,25.4 µM (inactive)
same,GI50,LOX IMVI,55.5 µM (inactive)
same,GI50,HOP-92,32.8 µM (inactive)
same,GI50,RPMI-8226,48.4 µM (inactive)
same,GI50,SF-268,> 100 µM (inactive)
same,GI50,MCF7,88.3 µM (inactive)
same,GI50,SR,69.3 µM (inactive)
same,GI50,HL-60,> 100 µM (inactive)
same,GI50,SK-OV-3,27.9 µM (inactive)
same,GI50,786-0,> 100 µM (inactive)
same,GI50,SNB-19,> 100 µM (inactive)
same,GI50,HCT-15,> 100 µM
same,GI50,UACC-257,> 100 µM (inactive)
same,GI50,KM12,88.3 µM (inactive)
same,GI50,SN12C,73.6 µM (inactive)
same,GI50,UO-31,43.9 µM (inactive)
same,GI50,A498,24.8 µM (inactive)
same,GI50,MOLT-4,48.4 µM (inactive)
same,GI50,DU-145,> 100 µM (inactive)
same,GI50,SK-MEL-2,> 100 µM (inactive)
same,GI50,K562,41.9 µM (inactive)
same,GI50,ACHN,> 100 µM (inactive)
same,GI50,SK-MEL-28,> 100 µM (inactive)
same,GI50,RXF 393,> 100 µM (inactive)
same,GI50,SNB-75,44.8 µM (inactive)
same,GI50,MDA-MB-231,76.2 µM (inactive)
same,GI50,M14,16.4 µM (inactive)
same,GI50,IGROV-1,68.9 µM (inactive)
same,GI50,HCC 2998,28.2 µM (inactive)
same,GI50,HT-29,47.8 µM (inactive)
same,GI50,HOP-62,55.8 µM (inactive)
same,GI50,TK-10,> 100 µM (inactive)
